The values that follow come from patent US20180271470A1, “METHODS FOR QUANTIFYING PANCREATIC BETA CELL FUNCTION AND MASS PROPERTIES WITH RADIOMANGANESE POSITRON EMISSION TOMOGRAPHY” (Wisconsin Alumni Research Foundation, priority 2017, published 2018).

Structures are written as SMILES. “And” between values parts separate entries of the source, which are not always exact repeats. Identical values can stand only once. Bounds are passed on as bounds.

Data set [1] has as its target type 2 vesicular transporter (VMAT2) (Homo sapiens, UniProt Q05940). Conditions: cited from earlier work.
For data set [2] the following is noted: dogs, previous studies; cited from earlier work.
For data set [3] the following is noted: primate models; cited from earlier work.
Data set [4] can be described thus: Ex vivo ^52Mn^2+ biodistribution by gamma counting after last PET scan. The class given is in vivo. Conditions: ICR mice, ex vivo gamma counting 13 days after injection. How it is done: Ex vivo biodistribution studies were performed in all groups of mice in order to validate the results of PET imaging and obtain a more complete biodistribution profile of ^52Mn^2+. Following the last imaging time point, mice were euthanized by C02 asphyxiation and the organs of interest were removed, wet-weighed, and counted on an automated gamma-counter (Wizard 2480, Perkin Elmer). The tissue uptake of ^52Mn^2+ was reported as SUV (mean±SD).

Data set [5] in a line: ^52Mn^2+ PET and biodistribution in STZ type-1 diabetes model. The class given is in vivo, ICR mice. The procedure:
Type 1 diabetes was induced in female ICR mice via a single IP injection of 180 mg/kg streptozotocin (STZ; MP Biomedical, LLC, Santa Ana, Calif.), a toxin that selectively destroys pancreatic beta cell. The injectable STZ solution (12.5 mg/mL) was prepared freshly in phosphate buffered saline (PBS). The weight of each mouse was measured daily, and blood glucose levels were recorded every other day with a glucometer (TRUEresult, Trividia Health Inc., Fort Lauderdale, Fla.) using blood samples collected from the tail vein. Mice were considered diabetic after two consecutive blood glucose readings above 250 mg/dL and were used for PET imaging studies one week after the injection of STZ. To evaluate ^52Mn^2+ pancreatic uptake on diabetic mice, 0.74 MBq (20 μCi) of activity were administered IV and static PET images recorded one hour after administration of the tracer. Ex vivo biodistribution was carried out following PET acquisition.

Data set [6] can be described thus: Dynamic PET of ^52Mn^2+ (rapid IV bolus or 30 min IV infusion) under isoflurane. The class given is in vivo, mice. How it is done:
To acquire dynamic PET scans, mice were anesthetized with isoflurane and the lateral tail vein was catheterized. Simultaneous with the administration of approximately 1.7 MBq (50 μCi) of ^52Mn^2+ as a fast IV bolus, one-hour scans were recorded and list-mode files were binned into 46 frames (12×5 s, 6×10 s, 6×30 s, 10×60 s, 6×150 s, 6×300 s) and the images reconstructed using a non-scatter-corrected OSEM3D/MAP algorithm. In another study, 1.7 MBq (50 μCi) of ^52Mn^2 was continuously infused with a syringe pump (Kd Scientific, Model 780100) over a period of 30 min, starting at the beginning of the PET scan. List-mode files were framed into 30×2 min frames and reconstructed using the above-mentioned algorithm.

The nature of data set [7]: Static PET imaging of ^52Mn^2+ biodistribution in normal mice. Conditions: healthy mice, IV, peaked within minutes following administration. The class given is in vivo, ICR mice.
A short description of data set [8]: ^52Mn^2+ PET in pre-type 2 diabetic ob/ob and lean C57BL/6J mice. The class given is in vivo. The source says: Given the altered glucose metabolism in obese mice, we compared the pancreatic uptake of ^52Mn^2+ in lean (wild-type) and obese (ob/ob) mice on the C57BL/6J background. For PET imaging, 0.74 MBq (20 μCi) of ^52Mn^2+ was IV injected into obese mice or lean controls one hour prior to PET scan acquisition. Subsequent ^52Mn^2+ accumulation in the pancreas and other organs of interest was quantified.

For data set [9], the system named is isolated ob/ob mouse islets. Nature of the data set: Uptake of ^52Mn^2+ in isolated islets under stimulatory or inhibitory conditions. The class given is cell-based. Conditions: low glucose (1 mM), 370 kBq ^52Mn^2+. How it is done: Mouse pancreatic islets were isolated by collagenase digestion. Briefly, mice were placed under shallow anesthesia and sacrificed via cervical dislocation. The mouse common bile duct was cannulized and 3-5 mL of an ice-cold solution containing type XI collagenase (0.5 mg/mL; Sigma Aldrich, St. Louis, Mo.) and bovine serum albumin (BSA; 0.2 mg/mL; Sigma Aldrich, St. Louis, Mo.) in Hank's balanced salt solution (HBSS; Invitrogen, Carlsbad, Calif.) was injected into the mouse pancreas. After inflation, the pancreas was removed, placed in a glass vial containing 5 mL of the collagenase solution, and incubated in a shaking water bath at 37° C. Samples were digested for approximately 30 min after which the digests were centrifuged at 50×g for 2 min and islet pellets were washed three times with 30 mL of an ice-cold BSA (0.2 mg/mL) in HBSS solution. The pellet was resuspended and islets handpicked into 35 mm petri dishes. Following isolation, islets were placed in RPMI1640 media supplemented with penicillin (100 U/mL; Invitrogen), streptomycin (100 μg/mL; Invitrogen), and FBS [10% (wt/vol); Sigma] and incubated overnight at 37° C. in a 5% CO2 atmosphere.
The uptake of ^52Mn^2+ by murine islets of Langerhans was determined under several stimulatory or inhibitory conditions. Batches of 50 islets were transferred into 0.45 μm filtered bottom 1 mL centrifuge vials (Thermo Fisher Scientific, Grand Island, N.Y.), 500 μL of Krebs-Ringer buffer (KRB: 118 mM NaCl, 5.4 mM KCl, 2.4 mM CaCl, 1.2 mM MgSO4, 1 mM […], 20 mM HEPES; pH 7.4) containing a low glucose concentration (1 mM D-glucose) were added and the islets incubated for 30 min at 37° C. After removing the supernatant following centrifugation at 50×g for 5 min, 250 μL of KRB containing glucose, diazoxide (50 μM; Tocris Biosciences, Bristol, UK), or tolbutamide (250 μM; Selleckchem, Houston, Tex.) were added, and the vials were spiked with 370 kBq (10 μCi) of ^52Mn^2+. After 15 min of incubation, the solutions were filtered and islets were washed three times with KRB. The ^52Mn^2+ radioactivity in the islet pellets were measured in an automated gamma counter (Perkin Elmer).

Data set [10] can be described thus: Static PET imaging of ^52Mn^2+ biodistribution in normal mice. The class given is in vivo, ICR mice. The procedure: The acquisition of PET images was performed in the Inveon μPET/μCT scanner (Siemens Preclinical Solutions, Knoxville, Tenn.). To study the long-term biodistribution and clearance of ^52Mn^2+ in the mouse body, approximately 3.7 MBq (100 μCi) of ^52Mn^2+ was injected intravenously (IV) in female ICR mice. […] Before each scan, mice were anesthetized with isoflurane (4% induction; 1% maintenance) and placed in the scanner in prone position. 30×10^6-40×10^6 coincidence events per mouse static PET scans were acquired (time window, 3.432 ns; energy window, 350-650 keV) and the PET images were reconstructed in Inveon Acquisition Workplace (Siemens Preclinical Solutions, Knoxville, Tenn.) workstation using a non-scatter-corrected three-dimensional Ordered Subset Expectation […]/Maximum a Posteriori (OSEM3D/MAP) algorithm. Region-of-interest (ROI) analysis was performed after organs were manually delineated on the PET images. Tissue uptake values were reported as standardized uptake value (SUV), which is normalized to whole body radiomanganese concentration.

[11] abbreviates: rapid IV bolus, isoflurane throughout, 1 h post injection.
Where [12] appears, read: ICR mice, IV ^52Mn^2+, awake at injection, static PET 1 h post injection.

Chain of type 2 vesicular transporter (VMAT2) (Q05940 whole entry, species assumed): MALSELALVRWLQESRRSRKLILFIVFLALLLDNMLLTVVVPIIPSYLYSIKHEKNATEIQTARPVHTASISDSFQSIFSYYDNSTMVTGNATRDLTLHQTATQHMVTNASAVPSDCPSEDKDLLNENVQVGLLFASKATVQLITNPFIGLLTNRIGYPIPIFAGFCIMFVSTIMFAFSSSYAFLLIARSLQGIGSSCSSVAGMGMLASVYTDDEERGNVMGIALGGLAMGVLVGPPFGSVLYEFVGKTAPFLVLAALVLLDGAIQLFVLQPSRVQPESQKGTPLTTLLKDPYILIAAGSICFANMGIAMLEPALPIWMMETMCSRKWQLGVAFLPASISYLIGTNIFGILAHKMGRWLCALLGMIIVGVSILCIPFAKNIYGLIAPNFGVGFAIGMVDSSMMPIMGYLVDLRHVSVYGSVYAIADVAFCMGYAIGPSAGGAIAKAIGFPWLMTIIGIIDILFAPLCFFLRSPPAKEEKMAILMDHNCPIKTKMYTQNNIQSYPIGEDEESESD

For `COc1cc2c(cc1OCCCF)CCN1CC(CC(C)C)C(O)CC21` (stereo not drawn) [FP-(+)-DTBZ], the “affinity for VMAT2” value in [1] is on record as “high affinity”.

Turning to `[54Mn]` [Mn-54], in data set [2], the blood clearance is recorded as approximately 0.8 min.

Regarding `COc1cc2c(cc1O[11CH3])CCN1CC(CC(C)C)C(O)CC21` (stereo not drawn) [[^11C]-DTBZ, [^11C]-Dihydrotetrabenazine], in data set [3], the pancreatic uptake entry is “very low”.

Regarding `[52Mn+2]` [^52Mn^2+], the “^52Mn^2+ uptake in other organs (brain, lungs, bones, intestines, stomach, spleen)” value in data set [4] was “less than 0.5 SUV”. The “^52Mn^2+ uptake in pancreas of diabetic mice (PET ROI)” value in [5] (STZ (180 mg/kg) diabetic ICR mice, 1 h post injection, normal mice 5.13±0.38 SUV) was determined as 2.04±0.81 SUV. In data set [5] (STZ-diabetic vs normal ICR mice), the “decrease in pancreatic accumulation of ^52Mn^2+, ex vivo biodistribution” value is reported as more than 58%. The “reduction in the pancreatic accumulation of ^52Mn^2+” value in data set [5] (STZ-induced type-1 diabetes model vs normal) is on record as approximately 60%. In [6] (IV infusion over 30 min, isoflurane), the “^52Mn^2+ uptake in pancreas, continuous infusion” value was determined as 3.44±0.69 SUV. Also, the “^52Mn^2+ uptake in kidney, continuous infusion” value in data set [6] (IV infusion over 30 min, isoflurane, 1 h post injection) amounted to 5.14±1.21 SUV. Moreover, the “reduction in pancreatic uptake, dynamic vs static PET” value in [6] (rapid IV bolus under isoflurane vs awake injection, 1 h post injection) is listed as approximately 50%. The “time until uptake stabilized in organs of interest” value in [6] (rapid IV bolus, dynamic PET) is given as “within five minutes”. Also, in data set [6] (rapid IV bolus, from myocardial TAC of dynamic PET), the blood circulation half-life was 10.7 ± 3.5 s. In data set [6] (setting [11]), the “^52Mn^2+ uptake in heart, dynamic PET” value turned out to be 2.60±0.41 SUV; the “^52Mn^2+ uptake in kidneys, dynamic PET” value came to 7.81±0.51 SUV; the “^52Mn^2+ uptake in liver, dynamic PET” value amounted to 5.16±1.46 SUV; the “^52Mn^2+ uptake in muscle, dynamic PET” value was determined as 0.16±0.02 SUV. The “^52Mn^2+ uptake in pancreas, dynamic PET” value in data set [6] (setting [11]) is 2.74±0.59 SUV. The “^52Mn^2+ uptake in the pancreas at peak” value in data set [7] is on record as 5-6 SUV. In [8] (lean C57BL/6J, 1 h), the “^52Mn^2+ uptake in liver, lean mice” value is 3.40±0.73 SUV and the “^52Mn^2+ uptake in salivary gland, lean mice” value is 3.11±1.05 SUV. Further, the “^52Mn^2+ pancreatic uptake, lean mice” value in data set [8] (lean C57BL/6J, PET 1 h after administration) is on record as 4.89±0.68 SUV. Further, in [8] (ob/ob C57BL/6J, 1 h), the “^52Mn^2+ uptake in liver, obese mice” value is given as 3.68±0.25 SUV and the “^52Mn^2+ uptake in salivary gland, obese mice” value is reported as 2.40±0.20 SUV. In addition, the “^52Mn^2+ pancreatic uptake, ob/ob mice” value in data set [8] (pre-type 2 diabetic ob/ob C57BL/6J, PET 1 h after administration) is listed as 7.27±1.03 SUV. In addition, the “^52Mn^2+ uptake by islets under resting conditions” value in data set [9] is “readily taken up”. In data set [10] (setting [12]), the “^52Mn^2+ uptake in heart (PET ROI)” value amounted to 2.11±0.20 SUV; the “^52Mn^2+ uptake in kidneys (PET ROI)” value came out at 5.13±0.02 SUV; the “^52Mn^2+ uptake in liver (PET ROI)” value was 3.27±0.36 SUV and 3.27±0.34 SUV; the “^52Mn^2+ uptake in muscle (PET ROI)” value stood at 0.38±0.03 SUV. In addition, in data set [10] (setting [12]), the “^52Mn^2+ uptake in pancreas (PET ROI)” value is 5.13±0.38 SUV and 5.13±0.36 SUV; the “^52Mn^2+ uptake in salivary glands (PET ROI)” value stood at 2.30±0.26 SUV. The “^52Mn^2+ uptake in salivary gland at subsequent time points” value in data set [10] (ICR mice, longitudinal PET after 1 h up to 13 days post injection) is “around 3 SUV”. Moreover, the “pancreas clearance half-life of ^52Mn^2+” value in data set [10] (healthy mice, IV) is recorded as “approximately 8 days”.
